Source: PubChem BioAssay (NCI)
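48-hour exposure; five concentrations; linearly interpolated endpoints. TGI denotes the concentration required for complete inhibition of growth.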

Tests used:
Assay in all cases: NCI anticancer screen, dose series, 48 h
K-562 leukemia = tested on: K-562 leukemia
LOX IMVI melanoma = tested on: LOX IMVI melanoma
UACC-257 melanoma = tested on: UACC-257 melanoma
SR leukemia = tested on: SR leukemia
EKVX NSCLC = tested on: EKVX NSCLC
RPMI-8226 leukemia = tested on: RPMI-8226 leukemia
M14 melanoma = tested on: M14 melanoma
HOP-92 NSCLC = tested on: HOP-92 NSCLC
SNB-19 CNS = tested on: SNB-19 CNS
SNB-75 CNS = tested on: SNB-75 CNS
NCI-H522 lung = tested on: NCI-H522 lung
UO-31 renal = tested on: UO-31 renal
A549 NSCLC = tested on: A549 NSCLC
U251 CNS = tested on: U251 CNS
SK-OV-3 ovarian = tested on: SK-OV-3 ovarian
NCI-H226 lung = tested on: NCI-H226 lung
KM20L2 colon = tested on: KM20L2 colon
OVCAR-5 ovarian = tested on: OVCAR-5 ovarian

Measured: TGI

COC(=O)C(C(=O)C(=O)Nc1cccc(OC)c1)c1cnc2ccccc2n1 (stereo not given)
> 100 µM: K-562 leukemia | LOX IMVI melanoma | UACC-257 melanoma | SR leukemia | EKVX NSCLC | RPMI-8226 leukemia | M14 melanoma | HOP-92 NSCLC | SNB-19 CNS | SNB-75 CNS | NCI-H522 lung | UO-31 renal | A549 NSCLC | U251 CNS | SK-OV-3 ovarian | NCI-H226 lung | KM20L2 colon | OVCAR-5 ovarian

O=C(c1ccc(O)cc1)C1c2c3c(cc(O)c2C(c2ccc(O)cc2)C1c1cc(O)cc(O)c1)OC(c1ccc(O)cc1)C3c1cc2c(cc1O)OC(c1ccc(O)cc1)C2c1cc(O)cc(O)c1 (stereo not given)
> 12.5 µM: K-562 leukemia | LOX IMVI melanoma | UACC-257 melanoma | SR leukemia | EKVX NSCLC | RPMI-8226 leukemia | M14 melanoma | HOP-92 NSCLC | SNB-19 CNS | SNB-75 CNS | NCI-H522 lung | UO-31 renal | A549 NSCLC | U251 CNS | NCI-H226 lung | KM20L2 colon | OVCAR-5 ovarian
